According to patent publication US12679878B2, “CRF2 receptor agonists and their use in therapy” (SANOFI, priority 2020, dated 2026):
Starred links: 1 amine or outer side, 2 acyl side, 3 side chain; linkers in the order of their positions; H or OH if unused. Residues, ends and D or L forms follow the SMILES beside them. Groups on a side chain read outwards from the residue. *: point of attachment. γGlu = O=C(O)[C@H](CCC(=O)[*:2])N[*:1]; Palmitoyl = CCCCCCCCCCCCCCCC(=O)*

Columns and labels:
CRF1R receptor = target: T1, CRF1R receptor (Homo sapiens, UniProt P34998); test: cAMP activity at anti-target CRF1R, CRF1R-overexpression CHO cell line (Example 9); format: cell-based; conditions: CRF1R-overexpression CHO cell line; for EC50: 0% HSA; for Emax: read-out: Emax (%)
T1 construct: host or cells: CHO-K1 clone 2
T1 sequence (P34998 24-415): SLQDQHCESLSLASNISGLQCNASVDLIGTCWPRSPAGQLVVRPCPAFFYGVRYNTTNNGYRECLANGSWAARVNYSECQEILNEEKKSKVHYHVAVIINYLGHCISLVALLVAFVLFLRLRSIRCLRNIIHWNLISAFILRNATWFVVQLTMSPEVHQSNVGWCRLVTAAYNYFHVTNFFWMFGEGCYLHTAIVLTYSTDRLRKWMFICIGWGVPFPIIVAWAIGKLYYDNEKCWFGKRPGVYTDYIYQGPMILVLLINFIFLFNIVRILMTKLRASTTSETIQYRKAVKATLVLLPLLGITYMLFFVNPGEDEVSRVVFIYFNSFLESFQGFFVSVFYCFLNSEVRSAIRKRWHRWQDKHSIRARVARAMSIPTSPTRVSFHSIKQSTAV
Method: Cells were grown in a T175 culture flask placed at 37° C. to near confluence in medium (DMEM/10% FBS) and collected in 2 ml vials in cell culture medium containing 10% DMSO in a concentration of 10-50 million cells/ml. Each vial contained 1.8 ml cells. The vials were slowly frozen to −80° C. in isopropanol and then transferred in liquid nitrogen for storage. Prior to use, frozen cells were thawed quickly at 37° C. and washed (5 min at 900 rpm) with 20 ml cell buffer (1×HBSS; 20 mM HEPES; 0% or 0.1% HSA). Cells were resuspended in assay buffer (cell buffer plus 2 mM IBMX) and adjusted to a cell density of 1 million cells/ml. For measurement, 5 μl cells (final […]) and 5 μL of test compound were added to a 384-well plate, followed by incubation for 30 minutes at room temperature.
The CAMP content of cells was determined using a kit from Cisbio Corp. (cat. no. 62AM4PEC) based on HTRF (Homogenous Time Resolved Fluorescence). […] The percent activity value (E %) was calculated by setting 1000 nM of urocortin 2 (UCN2) as 100%.
A CRF1R-overexpression CHO cell line was used in this study.

human CRF2α receptor = target: T2, human CRF2α receptor (Homo sapiens, UniProt Q13324); test: cAMP agonism at human CRF2 α receptor in TeloHEAC cells (Example 7); format: cell-based; conditions: cAMP HTRF, TeloHEAC cells stably expressing human CRF2 α, 0% HSA; read-out: EC50 [nM], 0% HSA
T2 construct: expressed in transfected cells; host or cells: TeloHEAC
T2 sequence (Q13324 1-411): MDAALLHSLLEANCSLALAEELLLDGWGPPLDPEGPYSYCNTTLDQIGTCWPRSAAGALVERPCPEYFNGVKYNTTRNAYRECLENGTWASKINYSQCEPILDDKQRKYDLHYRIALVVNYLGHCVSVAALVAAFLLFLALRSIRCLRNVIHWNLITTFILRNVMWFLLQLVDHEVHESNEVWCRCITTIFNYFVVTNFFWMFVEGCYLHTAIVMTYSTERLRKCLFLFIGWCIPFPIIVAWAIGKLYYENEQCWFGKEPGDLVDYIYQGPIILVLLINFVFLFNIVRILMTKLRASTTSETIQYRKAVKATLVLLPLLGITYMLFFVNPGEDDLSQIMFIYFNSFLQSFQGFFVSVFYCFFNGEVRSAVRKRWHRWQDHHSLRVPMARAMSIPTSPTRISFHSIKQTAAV
Summary of the method: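 Percent activation was referenced to 1000 nM UCN2 (100%), and EC50 values taken as concentrations giving half of maximal response. The read-out was a homogeneous time-resolved fluorescence cAMP kit, fluorescence ratio 665/620 nm. Thawed cells (2000/well) saw compound for 30 min at RT in buffer with 2 mM IBMX and 0%/0.1% HSA.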

EC50 (CRF1R receptor) [nM] | Emax (CRF1R receptor) [%] | EC50 (human CRF2α receptor) [nM] | SMILES
> 1000 | 37.4 | 0.04 | CCCCCCCCCCCCCCCC(=O)N[C@@H](CCC(=O)NCCCC[C@H](NC(=O)[C@H](CC(C)C)NC(=O)CNC(=O)[C@@H](NC(=O)[C@@H]1CCCN1C(=O)[C@@H](NC(=O)[C@H](CC(=O)O)NC(=O)[C@H](CC(C)C)NC(=O)[C@H](CO)NC(=O)[C@H](CC(C)C)NC(=O)[C@@H](NC(=O)[C@@H](N)[C@@H](C)CC)C(C)C)C(C)C)[C@@H](C)CC)C(=O)N[C@@H](CCC(N)=O)C(=O)N[C@@H](CCCCN)C(=O)N[C@@H](CC(C)C)C(=O)N[C@@H](CC(C)C)C(=O)N[C@@H](CCCCN)C(=O)N[C@@H](CCC(N)=O)C(=O)N[C@@H](CCC(N)=O)C(=O)N[C@@H](CCCNC(=N)N)C(=O)N[C@@H](CCC(N)=O)C(=O)N[C@@H](CCCNC(=N)N)C(=O)N[C@@H](CCCCN)C(=O)N[C@@H](CCC(=O)O)C(=O)N[C@@H](CCCNC(=N)N)C(=O)N[C@@H](CCC(N)=O)C(=O)N[C@@H](CCC(N)=O)C(=O)N[C@@H](C)C(=O)N[C@@H](CCC(=O)O)C(=O)N[C@H](C(=O)N[C@@H](CC(N)=O)C(=O)N[C@@H](C)C(=O)N[C@@H](CCCNC(=N)N)C(=O)N[C@H](C(=O)N[C@@H](CC(C)C)C(=O)N[C@@H](C)C(=O)N[C@@H](CCCNC(=N)N)C(=O)N[C@H](C(N)=O)C(C)C)[C@@H](C)CC)[C@@H](C)O)C(=O)O [compound 5] (H-IVLSLDVPIGLK([γGlu-Palmitoyl])QKLLKQQRQRKERQQAETNARILARV-NH2; N-terminus assumed)
> 1000 | 14.9 |  | CCCCCCCCCCCCCCCC(=O)N[C@@H](CCC(=O)NCCCC[C@H](NC(=O)[C@@H](NC(=O)[C@H](CCCCN)NC(=O)[C@@H](NC(=O)[C@@H]1CCCN1C(=O)[C@@H](NC(=O)[C@H](CC(=O)O)NC(=O)[C@H](CC(C)C)NC(=O)[C@H](CO)NC(=O)[C@H](CC(C)C)NC(=O)[C@@H](NC(=O)[C@@H](N)Cc1ccccc1)[C@@H](C)O)C(C)C)[C@@H](C)O)[C@@H](C)CC)C(=O)N[C@@H](CCC(N)=O)C(=O)N[C@@H](CCCCN)C(=O)N[C@@H](CC(C)C)C(=O)N[C@@H](CC(C)C)C(=O)N[C@@H](CCCCN)C(=O)N[C@@H](CCC(N)=O)C(=O)N[C@@H](CCC(=O)O)C(=O)N[C@@H](CCCCN)C(=O)N[C@@H](CCC(N)=O)C(=O)N[C@@H](CCCCN)C(=O)N[C@@H](CCCCN)C(=O)N[C@@H](CCC(N)=O)C(=O)N[C@@H](CCCNC(=N)N)C(=O)N[C@@H](CCC(N)=O)C(=O)N[C@@H](CCCCN)C(=O)N[C@@H](C)C(=O)N[C@@H](CCCCN)C(=O)N[C@H](C(=O)N[C@@H](C)C(=O)N[C@@H](CCCCN)C(=O)N[C@@H](CCC(N)=O)C(=O)N[C@H](C(=O)N[C@@H](CC(C)C)C(=O)N[C@@H](CCC(=O)O)C(=O)N[C@@H](CCC(N)=O)C(=O)N[C@H](C(N)=O)C(C)C)[C@@H](C)CC)[C@@H](C)O)C(=O)O [compound 9] (H-FTLSLDVPTKIK([γGlu-Palmitoyl])QKLLKQEKQKKQRQKAKTAKQILEQV-NH2)
